Converted amounts (≈) assume the structure as drawn. One block for each compound: values may come before it.
Tests used:
[1] = test system: P. aeruginosa (PAO1) biofilms; experiment: Biofilm inhibition, XTT metabolic assay; format: cell-based, Pseudomonas aeruginosa; conditions: 2.56 mM, Fig. 7(a)
Description: Initially, the ability of SSAs 1–5 to inhibit biofilm formation was determined against P. aeruginosa (PAO1) biofilms through an XTT metabolic assay, used to determine the viability of cells within a biofilm (Section S4, ESI ^†).[57] […] We believe that this may indicate that SSAs which contain a squaramide residue may experience an additional barrier to eliciting an antimicrobial effect that is concentration dependent.
Section S4: Microbial materials and methods
General remarks: The reference strains, Pseudomonas aeruginosa PAO1 and Candida albicans SC5314,
were used in this study. The strains were stored at −80 °C in nutrient broth (NB) (1 gL–1 meat extract, 2
gL–1 yeast extract, 5 gL–1 peptone, and 8 gL–1 sodium chloride) supplemented with 25 and 15 % (v/v)
glycerol, respectively. Before each assay, the P. aeruginosa and C. albicans strains were cultured from
the frozen stock onto nutrient agar (NA) (1 gL –1 […], 2 gL–1 yeast extract, 5 gL–1 peptone, 8 gL–
1 sodium chloride, 20 gL–1 agar) and yeast malt extract (YM) agar (3 gL–1 malt extract, 3 gL–1 yeast […]
for 48 hours at 37 °C and OD measurement (at a wavelength of 595 nm, OD 595) (EZ Read 800 Research, […]
introduced to each well. The plates were incubated for 3 hours at 37 °C in the dark and the absorbance
measured at 492 nm using a microtiter plate reader (EZ Read 800 Research, Biochrom, England). […]
evaluated. […]

[2] = Kinetic solubility determination in PBS pH 7.4; format: physicochemical; conditions: phosphate buffered saline, aqueous buffer, kinetic from dmso stock, PBS pH 7.4, 300 µM nominal, 2 hours at 25°C
Description: Section S5: In vitro and in vivo studies
These studies were performed by Contract Research Organisation (CRO) Pharmaron. The methodology provided within the ESI is published within the express permission of this organisation.
The percentage of a compound recovered during the analysis process should be 100 %; any deviation from this value indicates experimental limitations such as unintended potential non-specific binding events to experimental equipment, solubility issues, etc.
In vitro Absorption, Distribution and Metabolism studies methods: […]
The ionisation
Kinetic Solubility Determination in PBS pH 7.4:
The stock solutions of test and control compounds were prepared in DMSO at 10 mM. From this a 300 µM solution was prepared in duplicate in 100 mM Phosphate Buffered Saline (PBS, pH 7.4 ± 0.1). These solutions were then shaken at 1100rpm for 2 hours at 25°C. Following incubation, the samples were filtered using a vacuum manifold. The filtrate was analysed and quantified against a standard of known concentration using liquid chromatography mass -spectrometry (LC -MS/MS). […]
coupled to a Sciex 4500 mass spectrometer (AB Inc., Illinois) Separation of compounds was achieved using an XSelect HSS T3 column (2.5µm, 50 x 2.1 mm) (Waters Ltd., Wilmslow) at a temperature of 40°C and a binary mobile phase gradient at a flow rate of 0.8 mL/min. […]

[3] = test system: polymicrobial biofilms of C. albicans (SC5314) and P. aeruginosa (PAO1); set-up: method as in PMID 38222503; conditions: 0.16 mM, XTT assay, Fig. 8(c); cited from earlier work
[4] = cited from earlier work; for CAC / CAC (mM) / ST at CAC (mN m^−1): H2O:EtOH 19:1, approx. 291 K; for CAC / CAC (mM): surface tension measurements; for ST at CAC (mN/M): Table S1, same datum as Table 1

- solubility at 2 h [2]: 273 µM (≈ 85.8 µg/mL)
Compound: O=C(O)CNc1c(Nc2ccc(C(F)(F)F)cc2)c(=O)c1=O [SSA 5]
- Inhibition of biofilm formation [1]: completely inhibit biofilm formation

Compound: O=C(O)CNC(=S)Nc1ccc(C(F)(F)F)cc1 [SSA 2]
- antibiofilm activity [3]: 60–80%

Compound: O=c1c(NCCCS(=O)(=O)O)c(Nc2ccc(C(F)(F)F)cc2)c1=O [SSA 4]
- Inhibition of biofilm formation [1]: completely inhibit biofilm formation

Compound: O=S(=O)(O)CCCNC(=S)Nc1ccc(C(F)(F)F)cc1 [SSA 1]
- antibiofilm activity [3]: 60–80%
- CAC [4]: 5.61 mM
- CAC (mM) [4]: 5.6[43] mM
- ST at CAC (mN m^−1) [4]: 34[43] mN m^−1
- ST at CAC (mN/M) [4]: 33.59 mN/M

Compound: Cc1ccc2nc(-c3ccc(NC(=O)NCS(=O)(=O)O)cc3)sc2c1 [SSA 3]
- CAC [4]: 0.5 mM
- CAC (mM) [4]: 0.5[42] mM
- ST at CAC (mN m^−1) [4]: 47[42] mN m^−1
- ST at CAC (mN/M) [4]: 46.5 mN/M

Source: paper PMC12169104, “Towards the development of supramolecular self-associating amphiphiles as antibiofilm agents against Pseudomonas aeruginosa and Candida albicans biofilms” (Journal of Materials Chemistry. B, 2025)
